Measured values published in the OligoGym collection.
“And” between values parts separate entries of the source, which are not always exact repeats. Equal entries are not always repeated. After the bases stand the sugars from the 5' end (letter, count) and the backbone: PS all phosphorothioate, else s phosphorothioate and o phosphodiester by linkage. Methylation of C is not given here. e = 2'-O-(2-methoxyethyl) (MOE); d = 2'-deoxy (DNA)

Biological target: DGAT2
Conditions: ASO

| Sequence | target mRNA inhibition (HepG2, 2.5 µM) | target mRNA inhibition (HepG2, 10 µM) | target mRNA inhibition (HepG2, 0.12 µM) | target mRNA inhibition (HepG2, 20 µM) |
| --- | --- | --- | --- | --- |
| TCGCTAGAGTACAAGTTCTC (sugars e5 d10 e5, PS) | 88% | 93% | – | – |
| TCTCATTCATCTGGGCCCTG (sugars e5 d10 e5, PS) | 65% | 78% | – | – |
| TCTCATTTCTTATCTTCAAT (sugars e5 d10 e5, PS) | 60% and 72% | 88% and 93% | – | – |
| TCTCCTGTTTGATGGGT (sugars e3 d10 e4, PS) | 41% | 63% | – | – |
| TCTGATCAATTATTAACCTA (sugars e5 d10 e5, PS) | 20% | 55% | – | – |
| TCTTCTGGACCCATCGGCCC (sugars e5 d10 e5, PS) | – | – | 37% | – |
| TCTTGTGCTTGTCGAAGAGC (sugars e5 d10 e5, PS) | – | – | 62% | – |
| TCTTTTAAATAACCCACAGA (sugars e5 d10 e5, PS) | – | – | 10% | – |
| TGAGGCCCTTCAGCTTGTGC (sugars e5 d10 e5, PS) | – | – | 49% | – |
| TGAGGTTTAGGCTATGGTCT (sugars e5 d10 e5, PS) | 66% | 77% | – | – |
| TGATAGCATTGCCACTCCCA (sugars e2 d13 e5, PS) | – | – | 69% | – |
| TGCAGCCTACAAGAGCCTGT (sugars e5 d10 e5, PS) | 54% | 90% | – | – |
| TGCAGCCTGGACAAGTCCTG (sugars e3 d14 e3, PS) | 27% | 51% | 77% | 68% |
| TGCAGCTAATGATACAAGGT (sugars e5 d10 e5, PS) | 67% | 89% | – | – |
| TGCAGGCCCAGCACCAAGGA (sugars e5 d10 e5, PS) | 19% | 39% | – | – |
| TGCCACAGGGCCCTTTCCAG (sugars e5 d10 e5, PS) | 11% | 67% | – | – |
| TGCCATTTAATGAGCTTCAC (sugars e5 d10 e5, PS) | 79% and 81% | 91% and 92% | – | – |
| TGGAGCTCAGAGACTCAGCC (sugars e2 d13 e5, PS) | – | – | 82% | – |
| TGGAGCTCAGAGACTCAGCC (sugars e3 d14 e3, PS) | – | – | 76% | – |
| TGGCCTGGATGGCAACCTAA (sugars e5 d10 e5, PS) | 46% | 83% | – | – |

| Sequence | target mRNA inhibition (HepG2, 2.5 µM) | target mRNA inhibition (HepG2, 10 µM) | target mRNA inhibition (HepG2, 0.12 µM) | target mRNA inhibition (HepG2, 20 µM) |
| --- | --- | --- | --- | --- |
| TGGCTCTCTAGATAGGGTGG (sugars e5 d10 e5, PS) | 84% and 85% | 89% and 87% | – | – |
| TGGGAACTATCACACCACCT (sugars e5 d10 e5, PS) | 53% and 65% | 90% and 94% | – | – |
| TGGTGGTCAGCAGGTTGTGT (sugars e5 d10 e5, PS) | – | – | 51% | – |
| TGTGACCTTGGGATAGTCCC (sugars e5 d10 e5, PS) | 63% | 87% | – | – |
| TGTTGCCATCATACTAGACT (sugars e5 d10 e5, PS) | 64% | 75% | – | – |
| TTAAAAAAGACCTAACATTG (sugars e5 d10 e5, PS) | – | – | 0% | – |
| TTAAGGGTTCATGGATCCCC (sugars e5 d10 e5, PS) | 63% and 75% and 79% | 91% and 93% | – | – |
| TTATAATTTCTTTTAAATAA (sugars e5 d10 e5, PS) | – | – | 0% | – |
| TTCTGGACCCATCGGCCCCA (sugars e5 d10 e5, PS) | – | – | 27% | – |
| TTGCCAGGCATGGAGCTCAG (sugars e5 d10 e5, PS) | – | – | 37% | – |
| TTGCTCAGTTCTTCCAACCA (sugars e5 d10 e5, PS) | 81% and 72% | 93% and 94% | – | – |
| TTGGATAGTCGATTTACCAG (sugars e5 d10 e5, PS) | 62% | 92% | – | – |
| TTTAAATAACCCACAGACAC (sugars e5 d10 e5, PS) | – | – | 14% | – |
| TTTAGGCTATGGTCTGAGCA (sugars e5 d10 e5, PS) | 68% and 55% | 85% and 78% | – | – |
| TTTCTAGGGAAGCATGTGCA (sugars e5 d10 e5, PS) | 67% and 68% | 90% and 88% | – | – |
| TTTCTTATCTTCAATCCTCA (sugars e5 d10 e5, PS) | 56% | 90% | – | – |
| TTTCTTTTAAATAACCCACA (sugars e5 d10 e5, PS) | – | – | 1% | – |
| TTTGAAATCCAATGCACCTT (sugars e5 d10 e5, PS) | 63% | 96% | – | – |
| TTTTAAATAACCCACAGACA (sugars e5 d10 e5, PS) | 92% | 60% | 10% | 81% |
